Laboratory results taken from ChEMBL document CHEMBL3045456, “Biological Activity of Carpropamid (KTU 3616)” (1997).
Active and inactive are the calls of the source.

Assays:
Thanatephorus cucumeris [1] = experiment: Antifungal activity against Thanatephorus cucumeris assessed as colony color change after 2 to 7 days; assay type: functional, organism-based
Verticillium dahliae [2] = experiment: Antifungal activity against Verticillium dahliae assessed as colony color change after 2 to 7 days; assay type: functional, organism-based
Sclerotinia sclerotiorum [3] = experiment: Antifungal activity against Sclerotinia sclerotiorum assessed as colony color change after 2 to 7 days; assay type: functional, organism-based
[4] = tested on: Pectobacterium carotovorum; experiment: Antibacterial activity against Pectobacterium carotovorum assessed as colony color change after 2 days; assay type: functional, organism-based
Pseudomonas [5] = experiment: Antibacterial activity against Pseudomonas lachrymans assessed as colony color change after 2 days; assay type: functional, organism-based
Pyricularia oryzae [6] = experiment: Antifungal activity against Magnaporthe oryzae assessed as colony color change after 2 to 7 days; assay type: functional, organism-based
Penicillium digitatum [7] = experiment: Antifungal activity against Penicillium digitatum assessed as colony color change after 2 to 7 days; assay type: functional, organism-based
[8] = tested on: Fusarium oxysporum f. sp. lycopersici; experiment: Antifungal activity against Fusarium oxysporum f. sp. lycopersici assessed as colony colour change after 2 to 7 days; assay type: functional, organism-based
Nakataea oryzae [9] = experiment: Antifungal activity against Magnaporthe salvinii assessed as colony color change after 2 to 7 days; assay type: functional, organism-based
Colletotrichum lagenaria [10] = experiment: Antifungal activity against Colletotrichum lagenaria assessed as colony color change after 2 to 7 days; assay type: functional, organism-based
Botrytis cinerea [11] = experiment: Antifungal activity against Botryotinia fuckeliana assessed as colony color change after 2 to 7 days; assay type: functional, organism-based
Pythium [12] = experiment: Antifungal activity against Pythium sp. assessed as colony color change after 2 to 7 days; assay type: functional, organism-based
Alternaria brassicicola [13] = experiment: Antifungal activity against Alternaria brassicicola assessed as colony color change after 2 to 7 days; assay type: functional, organism-based
Phytophthora nicotianae [14] = experiment: Antifungal activity against Phytophthora nicotianae var. parasitica assessed as colony color change after 2 to 7 days; assay type: functional, organism-based
Pyricularia grisea [15] = experiment: Inhibition of Magnaporthe grisea infection of rice plant at 0.01 % sprayed onto inoculated rice seedlings at every 2 hr from 2 to 12 hr after inoculation measured after 10 hr; assay type: functional, organism-based
Pyricularia grisea [16] = experiment: Inhibition of Magnaporthe grisea infection of rice plant at 0.01 % sprayed onto inoculated rice seedlings at every 2 hr from 2 to 12 hr after inoculation measured after 8 hr; assay type: functional, organism-based
Pyricularia grisea [17] = experiment: Inhibition of Magnaporthe grisea infection of rice plant at 0.01 % sprayed onto inoculated rice seedlings at every 2 hr from 2 to 12 hr after inoculation measured after 6 hr; assay type: functional, organism-based
Pyricularia oryzae [18] = experiment: Inhibition of dark brown pigmentation formation in appressorium cells of Magnaporthe oryzae at > 0.1 ppm after 24 hr; assay type: functional, organism-based
Pyricularia oryzae [19] = experiment: Inhibition of appressorium formation in Magnaporthe oryzae up to 40 ppm after 24 hr; assay type: functional, organism-based
Pyricularia oryzae [20] = experiment: Inhibition of spore germination in Magnaporthe oryzae up to 40 ppm after 24 hr; assay type: functional, organism-based
[21] = tested on: Xanthomonas campestris pv. oryzae; experiment: Antibacterial activity against Xanthomonas campestris pv. oryzae assessed as colony color change after 2 days; assay type: functional, organism-based
Cytospora ceratosperma [22] = experiment: Antifungal activity against Valsa ceratosperma assessed as colony color change after 2 to 7 days; assay type: functional, organism-based
Fusarium fujikuroi [23] = experiment: Antifungal activity against Fusarium fujikuroi assessed as colony color change after 2 to 7 days; assay type: functional, organism-based
Bipolaris oryzae [24] = experiment: Antifungal activity against Bipolaris oryzae assessed as colony color change after 2 to 7 days; assay type: functional, organism-based
[25] = tested on: Botryosphaeria kuwatsukai; experiment: Antifungal activity against Botryosphaeria berengeriana f.sp. pyricola assessed as colony color change after 2 to 7 days; assay type: functional, organism-based
[26] = tested on: Xanthomonas campestris pv. oryzae; experiment: Antibacterial activity against Xanthomonas campestris pv. oryzae assessed as growth inhibition after 2 days; assay type: functional; conditions: 48 h, read-out: ED50 (the source's name)
[27] = tested on: Pectobacterium carotovorum; experiment: Antibacterial activity against Pectobacterium carotovorum assessed as growth inhibition after 2 days; assay type: functional; conditions: 48 h, read-out: ED50 (the source's name)
Pseudomonas [28] = experiment: Antibacterial activity against Pseudomonas lachrymans assessed as growth inhibition after 2 days; assay type: functional; conditions: 48 h, read-out: ED50 (the source's name)
Pyricularia oryzae [29] = experiment: Antifungal activity against Magnaporthe oryzae assessed as growth inhibition after 2 to 7 days; assay type: functional; conditions: read-out: ED50 (the source's name)
Penicillium digitatum [30] = experiment: Antifungal activity against Penicillium digitatum assessed as growth inhibition after 2 to 7 days; assay type: functional; conditions: read-out: ED50 (the source's name)
Nakataea oryzae [31] = experiment: Antifungal activity against Magnaporthe salvinii assessed as growth inhibition after 2 to 7 days; assay type: functional; conditions: read-out: ED50 (the source's name)
Botrytis cinerea [32] = experiment: Antifungal activity against Botryotinia fuckeliana assessed as growth inhibition after 2 to 7 days; assay type: functional; conditions: read-out: ED50 (the source's name)
Colletotrichum lagenaria [33] = experiment: Antifungal activity against Colletotrichum lagenaria assessed as growth inhibition after 2 to 7 days; assay type: functional; conditions: read-out: ED50 (the source's name)
[34] = tested on: Fusarium oxysporum f. sp. lycopersici; experiment: Antifungal activity against Fusarium oxysporum f. sp. lycopersici assessed as growth inhibition after 2 to 7 days; assay type: functional; conditions: read-out: ED50 (the source's name)
Alternaria brassicicola [35] = experiment: Antifungal activity against Alternaria brassicicola assessed as growth inhibition after 2 to 7 days; assay type: functional; conditions: read-out: ED50 (the source's name)
Pythium [36] = experiment: Antifungal activity against Pythium sp. assessed as growth inhibition after 2 to 7 days; assay type: functional; conditions: read-out: ED50 (the source's name)
Phytophthora nicotianae [37] = experiment: Antifungal activity against Phytophthora nicotianae var. parasitica assessed as growth inhibition after 2 to 7 days; assay type: functional; conditions: read-out: ED50 (the source's name)
Verticillium dahliae [38] = experiment: Antifungal activity against Verticillium dahliae assessed as growth inhibition after 2 to 7 days; assay type: functional; conditions: read-out: ED50 (the source's name)
Thanatephorus cucumeris [39] = experiment: Antifungal activity against Thanatephorus cucumeris assessed as growth inhibition after 2 to 7 days; assay type: functional; conditions: read-out: ED50 (the source's name)
Cytospora ceratosperma [40] = experiment: Antifungal activity against Valsa ceratosperma assessed as growth inhibition after 2 to 7 days; assay type: functional; conditions: read-out: ED50 (the source's name)
Sclerotinia sclerotiorum [41] = experiment: Antifungal activity against Sclerotinia sclerotiorum assessed as growth inhibition after 2 to 7 days; assay type: functional; conditions: read-out: ED50 (the source's name)
Fusarium fujikuroi [42] = experiment: Antifungal activity against Fusarium fujikuroi assessed as growth inhibition after 2 to 7 days; assay type: functional; conditions: read-out: ED50 (the source's name)
Bipolaris oryzae [43] = experiment: Antifungal activity against Bipolaris oryzae assessed as growth inhibition after 2 to 7 days; assay type: functional; conditions: read-out: ED50 (the source's name)
[44] = tested on: Botryosphaeria kuwatsukai; experiment: Antifungal activity against Botryosphaeria berengeriana f.sp. pyricola assessed as growth inhibition after 2 to 7 days; assay type: functional; conditions: read-out: ED50 (the source's name)

CC[C@]1(C(=O)N[C@H](C)c2ccc(Cl)cc2)[C@H](C)C1(Cl)Cl (relative stereo) [trans-Carpropamid]
> 200 µg/mL: EC50 [26] | EC50 [27] | EC50 (Pseudomonas [28]) | EC50 (Pyricularia oryzae [29]) | EC50 (Penicillium digitatum [30]) | EC50 (Nakataea oryzae [31]) | EC50 (Botrytis cinerea [32]) | EC50 (Colletotrichum lagenaria [33]) | EC50 [34] | EC50 (Alternaria brassicicola [35]) | EC50 (Verticillium dahliae [38]) | EC50 (Thanatephorus cucumeris [39]) | EC50 (Cytospora ceratosperma [40]) | EC50 (Sclerotinia sclerotiorum [41]) | EC50 (Fusarium fujikuroi [42]) | EC50 (Bipolaris oryzae [43]) | EC50 [44]
200 µg/mL: EC50 (Pythium [36])
50 µg/mL: EC50 (Phytophthora nicotianae [37])
active: Activity (Thanatephorus cucumeris [1]) | Activity (Verticillium dahliae [2]) | Activity (Pyricularia oryzae [6]) | Activity (Nakataea oryzae [9]) | Activity (Colletotrichum lagenaria [10]) | Activity (Alternaria brassicicola [13]) | inhibition (Pyricularia grisea [17]) | Activity (Cytospora ceratosperma [22]) | Activity (Bipolaris oryzae [24]) | Activity [25]
inactive: Activity (Sclerotinia sclerotiorum [3]) | Activity [4] | Activity (Pseudomonas [5]) | Activity (Penicillium digitatum [7]) | Activity [8] | Activity (Botrytis cinerea [11]) | Activity (Pythium [12]) | Activity (Phytophthora nicotianae [14]) | inhibition (Pyricularia grisea [15]) | inhibition (Pyricularia grisea [16]) | inhibition (Pyricularia oryzae [18]) | inhibition (Pyricularia oryzae [19]) | inhibition (Pyricularia oryzae [20]) | Activity [21] | Activity (Fusarium fujikuroi [23])
